Results taken from PubChem BioAssay (NCI).
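Briefly, cells in 96-well plates were exposed to five compound concentrations for 48 h, and endpoints were estimated by linear interpolation. GI50 is the concentration that inhibits growth by half. TGI: concentration producing complete growth inhibition.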

What was measured:
Assay in all cases: DTP human tumour cell line panel, 48 h
HCT-15 colon = test system: HCT-15 colon
A549 NSCLC = test system: A549 NSCLC
NCI/ADR-RES ovarian = test system: NCI/ADR-RES ovarian
OVCAR-3 ovarian = test system: OVCAR-3 ovarian
CAKI-1 renal = test system: CAKI-1 renal
RXF 393 renal = test system: RXF 393 renal
UACC-257 melanoma = test system: UACC-257 melanoma
PC-3 prostate = test system: PC-3 prostate
K-562 leukemia = test system: K-562 leukemia
SF-295 CNS = test system: SF-295 CNS
BT-549 breast = test system: BT-549 breast
DU-145 prostate = test system: DU-145 prostate
HL-60(TB) leukemia = test system: HL-60(TB) leukemia
UO-31 renal = test system: UO-31 renal
MALME-3M melanoma = test system: MALME-3M melanoma
NCI-H23 lung = test system: NCI-H23 lung
SK-MEL-28 melanoma = test system: SK-MEL-28 melanoma
HOP-62 NSCLC = test system: HOP-62 NSCLC
HS 578T breast = test system: HS 578T breast
SK-MEL-2 melanoma = test system: SK-MEL-2 melanoma
HCC-2998 colon = test system: HCC-2998 colon
LOX IMVI melanoma = test system: LOX IMVI melanoma
NCI-H522 lung = test system: NCI-H522 lung
MOLT-4 leukemia = test system: MOLT-4 leukemia
OVCAR-5 ovarian = test system: OVCAR-5 ovarian
OVCAR-8 ovarian = test system: OVCAR-8 ovarian

SMILES: N#Cc1c(-c2ccccc2)n([O-])c2ccccc2[n+]1=O
- TGI (HCT-15 colon): 48.3 µM
- GI50 (A549 NSCLC): 22 µM
- TGI (A549 NSCLC): 50.9 µM
- GI50 (NCI/ADR-RES ovarian): 21.1 µM
- TGI (NCI/ADR-RES ovarian): 44.8 µM
- GI50 (OVCAR-3 ovarian): 22.3 µM
- TGI (OVCAR-3 ovarian): 42.9 µM
- GI50 (CAKI-1 renal): 20.1 µM
- TGI (CAKI-1 renal): 34.7 µM
- GI50 (RXF 393 renal): 42.8 µM
- TGI (RXF 393 renal): > 100 µM
- GI50 (UACC-257 melanoma): 21.4 µM
- TGI (UACC-257 melanoma): 40.1 µM
- GI50 (PC-3 prostate): 26.4 µM
- TGI (PC-3 prostate): 79.8 µM
- GI50 (K-562 leukemia): 20.6 µM
- TGI (K-562 leukemia): 37.1 µM
- GI50 (SF-295 CNS): 24.4 µM
- TGI (SF-295 CNS): 56.4 µM
- GI50 (BT-549 breast): 25.1 µM
- TGI (BT-549 breast): 57.3 µM
- GI50 (DU-145 prostate): 22.4 µM
- TGI (DU-145 prostate): 51.2 µM
- GI50 (HL-60(TB) leukemia): 25.2 µM
- TGI (HL-60(TB) leukemia): 47.9 µM
- GI50 (UO-31 renal): 33.9 µM
- TGI (UO-31 renal): > 100 µM
- GI50 (MALME-3M melanoma): 21.3 µM
- TGI (MALME-3M melanoma): 37.1 µM
- GI50 (NCI-H23 lung): 20.3 µM
- TGI (NCI-H23 lung): 40.3 µM
- GI50 (SK-MEL-28 melanoma): 65.7 µM
- TGI (SK-MEL-28 melanoma): > 100 µM
- GI50 (HOP-62 NSCLC): 20.2 µM
- TGI (HOP-62 NSCLC): 38.7 µM
- GI50 (HS 578T breast): 26.8 µM
- TGI (HS 578T breast): 70 µM
- GI50 (SK-MEL-2 melanoma): 62.6 µM
- TGI (SK-MEL-2 melanoma): > 100 µM
- GI50 (HCC-2998 colon): 17 µM
- TGI (HCC-2998 colon): 34 µM
- GI50 (LOX IMVI melanoma): 18.7 µM
- TGI (LOX IMVI melanoma): 35.1 µM
- GI50 (NCI-H522 lung): 26.9 µM
- TGI (NCI-H522 lung): 75.1 µM
- GI50 (MOLT-4 leukemia): 10.2 µM
- TGI (MOLT-4 leukemia): 27.2 µM
- GI50 (OVCAR-5 ovarian): 28.1 µM
- TGI (OVCAR-5 ovarian): 74.2 µM
- GI50 (OVCAR-8 ovarian): 32.5 µM
- TGI (OVCAR-8 ovarian): 91.3 µM
